Reference: ChEMBL document CHEMBL1152184, “A micellar prodrug of paclitaxel conjugated to cyclotriphosphazene” (Bioorg Med Chem Lett, 2008)

Tested on: A-431
Assay: Cytotoxicity against human A431 cells after 72 hrs by SRB method
Type: functional, cell-based
Details: A-431, 72 h

With CC(=O)O[C@H]1C(=O)[C@@]2(C)[C@H]([C@H](OC(=O)c3ccccc3)[C@]3(O)C[C@H](OC(=O)[C@H](O)[C@@H](NC(=O)c4ccccc4)c4ccccc4)C(C)=C1C3(C)C)[C@]1(OC(C)=O)CO[C@@H]1C[C@@H]2O [PACLITAXEL] the IC50 was 25.1 nM.
